US6900200B2, “Tricyclic hydroxy carboxamides and derivatives thereof tocolytic oxytocin receptor antagonists” (Wyeth, priority 2001, dated 2005)

Molecular target: T1, human vasopressin V1a receptor subtype (Homo sapiens, UniProt P37288)
T1 construct: host or cells: CHO cells; pZeoSV vector for the Thibonnier line
Experiment: Vasopressin binding in CHO cell membranes expressing human vasopressin V1a subtype receptors ([3H]Manning ligand radioligand binding)
Conditions: @ 100 nM
Text: Vasopressin Binding in Chinese Hamster Ovary Cell Membranes Expressing Human Vasopressin V1a Subtype Receptors
Chinese hamster ovary cells (CHO cells) stably transfected with the human vasopressin V1a subtype receptors were either obtained from BioSignal Inc., 1744 rue Williams, Montreal, Quebec, Canada or obtained from M. Thibonnier, Case Western Reserve University School of Medicine, Cleveland, Ohio.
A. Passaging and Amplification of Cells
CHO cells transfected with the human vasopressin V1a subtype receptors obtained from M. Thibonnier (pZeoSV vector) are allowed to grow to confluency (approx. >90%) in T-150 flasks under sterile conditions, in a cell culture medium of F-12 Nutrient Mixture (HAM) with L-glutamine (Gibco Cat. #11765-054) containing 15 mM HEPES (Gibco Cat. #15630-080), 1% antibiotic/antimycotic (add 5 mL 100×, Gibco Cat. #15240-062 per 500 mL F-12), 250 μg/mL Zeocin (add 1.25 mL of 100 mg/mL Invitrogen R-250-01 per 500 mL F-12) and 10% Fetal Bovine Serum (Qualified, heat inactivated, Gibco Cat. #16140-063). The medium is removed by aspiration and the cells are washed with 10 mL of Hank's Balanced Salt solution (Gibco Cat. #14175-095). The salt solution is removed by aspiration and the cells are trypsinized with 5 mL of trypsin-EDTA (0.05% trypsin, 0.53 mM EDTA-4Na, Gibco Cat. #25300-070) for 1 min. The trypsin is removed by aspiration and the cells dislodged by tapping. Cell Culture medium (e.g. 30 mL for 1:30 split) is immediately added and mixed well to inactivate trypsin. 1 mL of detached cells is added to new culture flasks containing fresh cell culture medium (e.g., into 25 mL per T-150 flask), and mixed gently. The cells are incubated at 37° C. in 5% CO2. The medium is changed at 3 to 4 days interval (or as appropriate). The cells grow to confluency (approx. >75%-95%) within 7-8 days. All steps are done under sterile conditions.
The cells are washed twice gently with Hank's Balanced Salt solution (e.g,. use 10 mL per T-150 flask). The excess is removed and the cells are bathed for 15-30 min. in an enzyme-free Cell Dissociation Buffer (e.g. use 8 mL Hank's Based, Gibco Cat. #13150-016 per T-150 flask) until the cells are loosened. The contents are transferred to centrifuge tubes (50 mL) kept in an ice bath. All subsequent steps are done at 4° C. The tubes are centrifuged at 300×g for 15 min (1380 rpm on SORVAL, Model RT6000D, using the rotor for 50 mL tubes). The supernatant is discarded and the cells suspended in homogenizing buffer(10 mM Tris-HCl containing 0.25 M sucrose and 1 mM EDTA, pH 7.4) ensuring that the volume of the buffer is about ten times the volume of the cell pellet. The cells are pooled into a centrifuge tube (50 mL) and homogenized with Polytron at setting 6 for 10 sec. The homogenate is transferred into a Potter-Elvjehm homogenizer and homogenized with 3 strokes. The homogenate is centrifuged at 1500×g for 10 min at 4° C. (3100 rpm using SORVAL, model RT6000D, using the rotor for 50 mL tubes). The pellet is discarded. The supernatant is centrifuged at 100,000×g for 60 min. at 4° C. (Beckman L8-80M ultracentrifuge; spin at 37,500 rpm with rotor type 70 Ti for 50 mL tubes; 38,000 rpm with type 80Ti for 15 mL tubes; or 35,800 rpm with rotor type 45Ti). The supernantant is discarded and the pellet suspended in 3 to 4 mL of Tris buffer (50 mM TRIS—HCl, pH 7.4). The protein content is estimated by the Bradford or Lowry method. The volume of the membrane suspension is adjusted with the membrane buffer (50 mM Tris-HCl containing 0.1% BSA and 0.1 mM PMSF) to give 3.0 mg/mL (or as appropriate) of protein. The membranes are aliquoted and stored at −70° C.
C. Radioligand Binding Assay […]

T1 sequence (P37288 whole entry): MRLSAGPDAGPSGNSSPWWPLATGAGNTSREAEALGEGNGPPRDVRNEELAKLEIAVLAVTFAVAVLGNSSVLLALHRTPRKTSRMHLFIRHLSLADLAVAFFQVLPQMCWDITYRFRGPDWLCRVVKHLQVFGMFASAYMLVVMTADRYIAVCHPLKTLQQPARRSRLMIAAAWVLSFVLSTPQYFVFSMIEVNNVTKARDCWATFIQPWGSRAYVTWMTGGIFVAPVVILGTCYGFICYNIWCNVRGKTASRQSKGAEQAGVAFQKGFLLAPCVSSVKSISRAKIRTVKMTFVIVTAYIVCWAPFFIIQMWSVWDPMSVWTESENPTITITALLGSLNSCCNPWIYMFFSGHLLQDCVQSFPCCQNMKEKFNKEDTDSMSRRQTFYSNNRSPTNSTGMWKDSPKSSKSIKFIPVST

Molecule	inhibition at 0.1 µM [%]
Cc1cc(C(=O)N2Cc3ccc(C(=O)NC(CO)(CO)CO)n3Cc3ccccc32)ccc1-c1ccccc1C(F)(F)F [Example 3, 10-[(2-Methyl-2′-trifluoromethyl-[1,1′-biphenyl]-4-yl)carbonyl]-10,11-dihydro-5H-pyrrolo[2,1-c][1,4]benzodiazepine-3-carboxylic acid (2-hydroxy-1,1-bis-hydroxymethyl-ethyl)-amide]	7
COc1cc(C(=O)N2Cc3ccc(C(=O)N4CCN(CCO)CC4)n3Cc3ccccc32)ccc1-c1cccc2ccccc12 [Example 41, [4-(2-Hydroxyethyl)-1-piperazinyl]{10-[3-methoxy-4-(1-naphthyl)benzoyl]-10,11-dihydro-5H-pyrrolo[2,1-c][1,4]benzodiazepin-3-yl}methanone]	12
Cc1ccccc1-c1ccc(C(=O)N2Cc3ccc(C(=O)N4CCN(CCO)CC4)n3Cc3ccccc32)cc1 [Example 45, [4-(2-Hydroxyethyl)-1-piperazinyl]{10-[(2′-methyl[1,1′-biphenyl]-4-yl)carbonyl]-10,11-dihydro-5H-pyrrolo[2,1-c][1,4]benzodiazepin-3-yl}methanone]	57
COc1cc(C(=O)N2Cc3ccc(C(=O)N4CCN(CCO)CC4)n3Cc3ccccc32)ccc1-n1c(C)ccc1C [Example 52, {10-[4-(2,5-Dimethyl-1H-pyrrol-1-yl)-3-methoxybenzoyl]-10,11-dihydro-5H-pyrrolo[2,1-c][1,4]benzodiazepin-3-yl}[4-(2-hydroxyethyl)-1-piperazinyl]methanone]	7
Cc1cc(C(=O)N2Cc3ccc(C(=O)N4CCN(CCO)CC4)n3Cc3ccccc32)ccc1-c1ccccc1C(F)(F)F [Example 48, [4-(2-Hydroxyethyl)-1-piperazinyl](10-{[2-methyl-2′-(trifluoromethyl)[1,1′-biphenyl]-4-yl)carbonyl}-10,11-dihydro-5H-pyrrolo[2,1-c][1,4]benzodiazepin-3-yl)methanone]	7
COc1cc2c(cc1OC)N(C(=O)c1ccc(-c3ccccc3C(F)(F)F)c(C)c1)Cc1ccc(C(=O)N(CCO)CCO)n1C2 [Example 19, N,N-Bis(2-Hydroxyethyl)-7,8-dimethoxy-10-{[2-methyl-2′-trifluoromethyl-[1,1′-biphenyl]-4-yl]carbonyl}-10,11-dihydro-5H-pyrrolo[2,1-c][1,4]benzodiazepine-3-carboxamide]	1

Same assay, conditions: value printed in parentheses

Molecule	IC50 [µM]
COc1ccccc1-c1ccc(C(=O)N2Cc3ccc(C(=O)N(C)C[C@H](O)[C@@H](O)[C@H](O)[C@H](O)CO)n3Cc3ccccc32)cc1C [Example 17, 10-[(2′-Methoxy-2-methyl-[1,1′-biphenyl]-4-yl)carbonyl]-10,11-dihydro-5H-pyrrolo[2,1-c][1,4]benzodiazepine-3-carboxylic acid methyl-[(2S,3R,4R, 5R)-2,3,4,5,6-pentahydroxy-hexyl)-amide]	0.227
Cc1cc(C(=O)N2Cc3ccc(C(=O)N(C)CC4COC(=O)O4)n3Cc3ccccc32)ccc1-c1ccccc1C(F)(F)F (centres unmarked) [Example 11, 10-[(2-Methyl-2′-trifluoromethyl-[1,1′-biphenyl]-4-yl)carbonyl]-10,11-dihydro-5H-pyrrolo[2,1-c][1,4]benzodiazepine-3-carboxylic acid methyl-[(2-oxo-[1,3]dioxolan-4-yl)methyl]-amide]	1.37
Cc1cc(C(=O)N2Cc3ccc(C(=O)N4CCN(C[C@H](O)CO)CC4)n3Cc3ccccc32)ccc1-c1ccccc1C(F)(F)F [Example 5, (2S)-3-{4-[(10-{[2-Methyl-2′-trifluoromethyl-[1,1′-biphenyl]-4-yl]carbonyl}-10,11-dihydro-5H-pyrrolo[2,1-c][1,4]benzodiazepin-3-yl)carbonyl]piperazin-1-yl}propane-1,2-diol]	2.72
Cc1ccc(-c2ccc(C(=O)N3Cc4ccc(C(=O)N(C)CC(O)CO)n4Cc4ccccc43)cc2)c2ccccc12 (centres unmarked) [Example 26, 10-{[4-(4-Methyl-naphthalen-1-yl)phenyl]carbonyl}-10,11-dihydro-5H-pyrrolo[2,1-c][1,4]benzodiazepine-3-carboxylic acid (2,3-dihydroxy-propyl)-N-methylamide]	0.14
Cc1cc(C(=O)N2Cc3ccc(C(=O)N(C)C[C@H](O)[C@@H](O)[C@H](O)[C@H](O)CO)n3Cc3ccccc32)ccc1-c1ccccc1C(F)(F)F [Example 4, 10-[(2-Methyl-2′-trifluoromethyl-[1,1′-biphenyl]-4-yl)carbonyl]-10,11-dihydro-5H-pyrrolo[2,1-c][1,4]benzodiazepine-3-carboxylic acid methyl-((2S,3R,4R,5R)-2,3,4,5,6-pentahydroxy-hexyl)-amide]	1.43
COc1cc(-c2ccccc2C)c(Cl)cc1C(=O)N1Cc2ccc(C(=O)N3CCN(CCO)CC3)n2Cc2ccccc21 [Example 39, {10-[(6-Chloro-3-methoxy-2′-methyl[1,1′-biphenyl]-4-yl)carbonyl]-10,11-dihydro-5H-pyrrolo[2,1-c][1,4]benzodiazepin-3-yl}[4-(2-hydroxyethyl)-1-piperazinyl]methanone]	0.759
{(2S)-1-[(10-{[2-Methoxy-2(trifluoromethyl)[1,1′-biphenyl]-4-yl]carbonyl}-10,11-dihydro-5H-pyrrolo[2,1-c][1,4]benzodiazepin-3-yl)carbonyl]pyrrolidin-2-yl}-methanol [Example 36]	1.51
CC(=O)OCC(CN(C)C(=O)c1ccc2n1Cc1ccccc1N(C(=O)c1ccc(-c3ccccc3C(F)(F)F)c(C)c1)C2)OC(C)=O (centres unmarked) [Example 13, 2-(Acetyloxy)-1-({methyl[(10-{[2-methyl-2′-trifluoromethyl-[1,1′-biphenyl]-4-yl]carbonyl}-10,11-dihydro-5H-pyrrolo[2,1-c][1,4]benzodiazepin-3-yl)carbonyl]amino}methyl)ethyl acetate]	1.2
COCC(CN(C)C(=O)c1ccc2n1Cc1ccccc1N(C(=O)c1ccc(-c3ccccc3C(F)(F)F)c(C)c1)C2)OC (centres unmarked) [Example 10, N-(2,3-Dimethoxypropyl)-N-methyl-10-{[2-methyl-2′-trifluoromethyl-[1,1′-biphenyl]-4-yl]carbonyl}-10,11-dihydro-5H-pyrrolo[2,1-c][1,4]benzodiazepine-3-carboxamide]	1.8
Cc1cc(C(=O)N2Cc3ccc(C(=O)N(C)CC(O)CO)n3Cc3ccccc32)ccc1-c1ccccc1C(F)(F)F (centres unmarked) [Example 2, 10-[(2-Methyl-2′-trifluoromethyl-[1,1′-biphenyl]-4-yl)carbonyl]-10,11-dihydro-5H-pyrrolo[2,1-c][1,4]benzodiazepine-3-carboxylic acid (2,3-dihydroxy-propyl)-methyl-amide]	0.79
COc1cc(C(=O)N2Cc3ccc(C(=O)N(C)C[C@@H](O)[C@H](O)[C@H](O)[C@@H](O)CO)n3Cc3ccccc32)ccc1-c1ccccc1C(F)(F)F (stereo in doubt) [Example 23, 10-{[2-Methoxy-2′-trifluoromethyl-[1,1′-biphenyl]-4-yl]carbonyl}-N-methyl-N-[(2R,3S,4R,5S)-2,3,4,5,6-pentahydroxyhexyl]-10,11-dihydro-5H-pyrrolo[2,1-c][1,4]benzodiazepine-3-carboxamide]	1.08
